Reference: US11028066B2, “Inhibitors of lysine specific demethylase-1” (CELGENE QUANTICEL RESEARCH, INC., priority 2014, dated 2021)

Tests used:
[1] = target: full-length human LSD1 (Homo sapiens (Human), UniProt O60341); experiment: In vitro enzyme inhibition assay LSD-1 (TR-FRET); assay type: biochemical; conditions: H3K4me1-biotin peptide
Procedure: This assay determines the ability of a test compound to inhibit LSD1 demethylase activity.
The enzymatic assay of LSD1 activity is based on Time Resolved-Fluorescence Resonance Energy Transfer (TR-FRET) detection.
Plates were read by EnVision Multilabel Reader in TR-FRET mode (excitation at 320 nm, emission at 615 nm and 665 nm) after 1 hour incubation at room temperature.
The ability of the compounds disclosed herein to inhibit LSD1 activity was quantified and the respective IC50 value was determined.

[2] = test system: THP-1 (AML) cells; experiment: LSD1 CD11b cellular assay (flow cytometry); assay type: cell-based; conditions: Homo sapiens, THP-1, 96 h; CD11b expressing cells, 4 days incubation
Procedure: To analyze LSD1 inhibitor efficacy in cells, a CD11b flow cytometry assay was performed. LSD1 inhibition induces CD11b expression in THP-1 (AML) cells which can be measured by flow cytometry. […] LSD1 test compounds were serially diluted in DMSO. The dilutions were added to each well accordingly to a final concentration of 0.2% DMSO. The cells were incubated at 37 degrees Celsius in 5% CO2 for 4 days. 250 μL of each well was transferred to a well in a 96 well round bottom plate. The plate was centrifuged at 1200 rpm at 4 degrees Celsius in a Beckman Coulter Alegra 6KR centrifuge for 5 minutes. The media was removed leaving the cells at the bottom of the wells. The cells were washed in 100 μL cold HBSS (Hank's Balanced Salt Solution) plus 2% BSA (Bovine Serum Albumin) solution and centrifuged at 1200 rpm at 4 degrees Celsius for 5 minutes. The wash was removed. […] The cells were centrifuged and washed two times in 100 μL HBSS plus 2% BSA. After the final spin the cells were resuspended in 100 μL HBSS plus 2% BSA containing 1 ug/mL DAPI (4′,6-diamidino-2-phenylindole). The cells were then analyzed by flow cytometry in a BD FACSAria machine. Cells were analyzed for CD11b expression. The percent of CD11b expressing cells for each inhibitor concentration was used to determine an IC50 curve for each compound analyzed.

Row | IC50 [1] | IC50 [2] | Structure (SMILES)
1 | < 0.1 µM | 0.1 to 1 µM | N#Cc1ccc(-c2cn(CC3CCOCC3)c(=O)c(N3CCC(N)CC3)n2)cc1F [Example 15, 4-[6-(4-amino-piperidin-1-yl)-5-oxo-4-(tetrahydro-pyran-4-ylmethyl)-4,5-dihydro-pyrazin-2-yl]-2-fluoro-benzonitrile]
2 | < 0.1 µM | < 0.1 µM | Cc1ccc(-c2c(-c3ccc(C#N)cc3)nc(N3CCC4CNCC4C3)c(=O)n2C)cc1 (centres unmarked) [Example 23, 4-[4-methyl-3-(4-methylphenyl)-6-{octahydro-1H-pyrrolo[3,4-c]pyridin-5-yl}-5-oxo-4,5-dihydropyrazin-2-yl]benzonitrile]
3 | < 0.1 µM | < 0.1 µM | COc1ccc(-c2c(-c3ccc(C#N)c(F)c3)nc(N3CCC(N)CC3)c(=O)n2CC(N)=O)cc1 [Example 88, 2-[3-(4-aminopiperidyl)-5-(4-cyano-3-fluorophenyl)-6-(4-methoxyphenyl)-2-oxohydropyrazinyl]acetamide]
4 | < 0.1 µM | < 0.1 µM | CCc1ccc(-c2c(-c3ccc(C#N)nc3)nc(NC[C@H]3CCNC3)c(=O)n2C)cc1 [Example 56, 5-{3-(4-ethyl-phenyl)-4-methyl-5-oxo-6-[((3S)-pyrrolidin-3-ylmethyl)-amino]-4,5-dihydro-pyrazin-2-yl}-pyridine-2-carbonitrile]
5 | < 0.1 µM | < 0.1 µM | COc1ccc(-c2c(-c3ccc(C#N)nc3)nc(N3CCC(N)CC3)c(=O)n2C)cc1 [Example 51, 5-[6-(4-amino-piperidin-1-yl)-3-(4-methoxy-phenyl)-4-methyl-5-oxo-4,5-dihydro-pyrazin-2-yl]-pyridine-2-carbonitrile]
6 | < 0.1 µM | < 0.1 µM | CNC1CCN(c2cc(-c3ccc(C#N)cc3)c(-c3ccc(N(C)C)nc3)n(C)c2=O)CC1 [Example 92, 4-{2-[6-(dimethylamino)(3-pyridyl)]-1-methyl-5-[4-(methylamino)piperidyl]-6-oxo-3-hydropyridyl}benzenecarbonitrile]
7 | < 0.1 µM | 0.1 to 1 µM | N#Cc1ccc(-c2cn(Cc3ccc(F)cc3)c(=O)c(N3CCC(N)CC3)n2)cc1 [Example 9, 4-[6-(4-aminopiperidin-1-yl)-4-[(4-fluorophenyl)methyl]-5-oxo-4,5-dihydropyrazin-2-yl]benzonitrile]
8 | < 0.1 µM | < 0.1 µM | CCc1ccc(-c2c(-c3ccc(C#N)c(F)c3)nc(NC[C@H]3CCNC3)c(=O)n2C)cc1 [Example 57, 4-{3-(4-ethyl-phenyl)-4-methyl-5-oxo-6-[((3S)-pyrrolidin-3-ylmethyl)-amino]-4,5-dihydro-pyrazin-2-yl}-2-fluoro-benzonitrile]
9 | < 0.1 µM | < 0.1 µM | Cc1ccc(-c2c(-c3ccc(C#N)cc3)nc(NC[C@H]3CCNC3)c(=O)n2C)cc1 [Example 17, 4-[4-methyl-3-(4-methylphenyl)-5-oxo-6-{[(3S)-pyrrolidin-3-ylmethyl]amino}-4,5-dihydropyrazin-2-yl]benzonitrile]
10 | < 0.1 µM | < 0.1 µM | Cn1c(-c2ccc(C3CC3)cc2)c(-c2ccc(C#N)nc2)cc(NC[C@H]2CCNC2)c1=O [Example 73, (S)-5-(2-(4-cyclopropylphenyl)-1-methyl-6-oxo-5-(pyrrolidin-3-ylmethylamino)-1,6-dihydropyridin-3-yl)picolinonitrile]
11 | < 0.1 µM | 0.1 to 1 µM | COc1ccc(-c2c(-c3ccc(C#N)cc3)nc(NC[C@@H]3CCNC3)c(=O)n2C)cc1 [Example 32, 4-[3-(4-methoxyphenyl)-4-methyl-5-oxo-6-{[(3R)-pyrrolidin-3-ylmethyl]amino}-4,5-dihydropyrazin-2-yl]benzonitrile]
12 | < 0.1 µM | < 0.1 µM | COc1ccc(-c2c(-c3ccc(C#N)nc3)nc(NC[C@H]3CCNC3)c(=O)n2C)cc1 [Example 54, 5-{3-(4-methoxy-phenyl)-4-methyl-5-oxo-6-[((3S)-pyrrolidin-3-ylmethyl)-amino]-4,5-dihydro-pyrazin-2-yl}-pyridine-2-carbonitrile]
13 | < 0.1 µM | < 0.1 µM | Cc1ccc(-c2c(-c3ccc(C#N)cc3)nc(N3CCC(N)CC3)c(=O)n2C)cn1 [Example 49, 4-[6-(4-amino-piperidin-1-yl)-4-methyl-3-(6-methyl-pyridin-3-yl)-5-oxo-4,5-dihydro-pyrazin-2-yl]-benzonitrile]
14 | < 0.1 µM | < 0.1 µM | Cn1c(-c2ccc(C3CC3)cc2)c(-c2ccc(C#N)c(F)c2)nc(N2CCC(N)CC2)c1=O [Example 50, 4-[6-(4-amino-piperidin-1-yl)-3-(4-cyclopropyl-phenyl)-4-methyl-5-oxo-4,5-dihydro-pyrazin-2-yl]-2-fluoro-benzonitrile]
15 | < 0.1 µM | < 0.1 µM | N#Cc1ccc(-c2nc(N3CCC(N)CC3)c(=O)n(CCO)c2-c2ccc(C3CC3)cc2)cc1 [Example 38, 4-[6-(4-amino-piperidin-1-yl)-3-(4-cyclopropyl-phenyl)-4-(2-hydroxy-ethyl)-5-oxo-4,5-dihydro-pyrazin-2-yl]-benzonitrile]
16 | < 0.1 µM | < 0.1 µM | COc1ccc(-c2c(-c3ccc(C#N)c(F)c3)nc(N3CCC(N)CC3)c(=O)n2CCCC(N)=O)cc1 [Example 90, 4-[3-(4-aminopiperidyl)-5-(4-cyano-3-fluorophenyl)-6-(4-methoxyphenyl)-2-oxohydropyrazinyl]butanamide]
17 | < 0.1 µM | 0.1 to 1 µM | Cn1c(-c2ccc(C3CC3)cc2)c(-c2ccc(C#N)cc2)nc(NC[C@H]2CCNC2)c1=O [Example 34, 4-[3-(4-cyclopropylphenyl)-4-methyl-5-oxo-6-{[(3S)-pyrrolidin-3-ylmethyl]amino}-4,5-dihydropyrazin-2-yl]benzonitrile]
18 | < 0.1 µM | < 0.1 µM | COc1ccc(-c2c(-c3ccc(C#N)c(F)c3)nc(N3CCC(N)CC3)c(=O)n2CCC(N)=O)cc1 [Example 89, 3-[3-(4-aminopiperidyl)-5-(4-cyano-3-fluorophenyl)-6-(4-methoxyphenyl)-2-oxohydropyrazinyl]propanamide]
19 | < 0.1 µM | < 0.1 µM | COc1ccc(-c2c(-c3ccc(C#N)cc3)nc(N3CCC(N)CC3)c(=O)n2C)cc1 [Example 30, 4-[6-(4-aminopiperidin-1-yl)-3-(4-methoxyphenyl)-4-methyl-5-oxo-4,5-dihydropyrazin-2-yl]benzonitrile]
20 | < 0.1 µM | 0.1 to 1 µM | N#Cc1ccc(-c2cn(Cc3ccccc3F)c(=O)c(N3CCC(N)CC3)n2)cc1 [Example 3, 4-[6-(4-aminopiperidin-1-yl)-4-[(2-fluorophenyl)methyl]-5-oxo-4,5-dihydropyrazin-2-yl]benzonitrile]
21 | < 0.1 µM | 0.1 to 1 µM | COc1ccc(Cn2cc(-c3ccc(C#N)cc3)nc(N3CCC(N)CC3)c2=O)cc1 [Example 11, 4-[6-(4-aminopiperidin-1-yl)-4-[(4-methoxyphenyl)methyl]-5-oxo-4,5-dihydropyrazin-2-yl]benzonitrile]
22 | < 0.1 µM | < 0.1 µM | Cn1c(-c2ccc(C3CC3)cc2)c(-c2ccc(C#N)nc2)nc(N2CCC(N)CC2)c1=O [Example 53, 5-[6-(4-amino-piperidin-1-yl)-3-(4-cyclopropyl-phenyl)-4-methyl-5-oxo-4,5-dihydro-pyrazin-2-yl]-pyridine-2-carbonitrile]
23 | < 0.1 µM | < 0.1 µM | COCCCn1c(-c2ccc(C)cc2)c(-c2ccc(C#N)c(F)c2)nc(N2CCC(N)CC2)c1=O [Example 45, 4-[6-(4-aminopiperidyl)-4-(3-methoxypropyl)-3-(4-methylphenyl)-5-oxo(4-hydropyrazin-2-yl)]-2-fluorobenzenecarbonitrile]
24 | < 0.1 µM | 0.1 to 1 µM | Cn1c(-c2ccc(C3CC3)cc2)c(-c2ccc(C#N)cc2)nc(NC[C@@H]2CCNC2)c1=O [Example 35, 4-[3-(4-cyclopropylphenyl)-4-methyl-5-oxo-6-{[(3R)-pyrrolidin-3-ylmethyl]amino}-4,5-dihydropyrazin-2-yl]benzonitrile]
25 | < 0.1 µM | < 0.1 µM | CCOc1ccc(-c2c(-c3ccc(C#N)c(F)c3)nc(NC[C@H]3CCNC3)c(=O)n2C)cc1 [Example 62, 4-{3-(4-ethoxy-phenyl)-4-methyl-5-oxo-6-[((3S)-pyrrolidin-3-ylmethyl)-amino]-4,5-dihydro-pyrazin-2-yl}-2-fluoro-benzonitrile]
26 | < 0.1 µM | < 0.1 µM | Cc1ccc(-c2c(-c3ccc(C#N)cc3)nc(N3CCC4(CCNC4)CC3)c(=O)n2C)cc1 [Example 24, 4-(6-{2,8-diazaspiro[4.5]decan-8-yl}-4-methyl-3-(4-methylphenyl)-5-oxo-4,5-dihydropyrazin-2-yl)benzonitrile]
27 |  | < 0.1 µM | CCn1c(-c2ccc(OC)cc2)c(-c2ccc(C#N)c(F)c2)cc(N2CCC(N)CC2)c1=O [Example 87, 4-[5-(4-aminopiperidin-1-yl)-1-ethyl-2-(4-methoxyphenyl)-6-oxopyridin-3-yl]-2-fluorobenzonitrile]
